Where “and” joins values, the source holds several entries; their conditions need not be identical. Equal values may be shown once. Read-outs that look alike come from different tables or passages of the source.
What was measured:
human CB1 receptor [1] = target: T1, human CB1 receptor (Homo sapiens, UniProt P21554); assay: CB1 receptor binding, [3H]CP55,940 displacement in membranes of transfected cells
T1 construct: expressed in transfected cells; b94 says CHO for CB1
Experimental: (§1) For the in vivo studies, the drugs were dissolved in either saline or emulphor:ethanol:saline (E:E:S) as indicated.
(§2) cLogP calculations. Absolute solubility determinations were not performed. Rather, cLogP calculations were performed using the CS ChemDraw Ultra software (Cambridge Soft Corporation, Cambridge, Mass.). Receptor Binding. HEK-293 cells stably expressing the human CB1 receptor were cultured in DMEM with 10% FBS and Chinese Hamster Ovary (CHO) cells stably expressing the human CB2 receptor were cultured in DMEM with 10% FCS. Cells were harvested by replacement of the media with cold phosphate-buffered saline containing 1 mM EDTA followed by centrifugation at 1000×g for 5 min at 4° C. The pellet was resuspended in 50 mM Tris-HCl containing 320 mM sucrose, 2 mM EDTA and 5 mM MgCl2 (pH 7.4) (centrifugation buffer), then centrifuged at 1000×g for 10 min at 4° C., and the resulting supernatant was saved. This process was repeated twice. The supernatant fractions were combined and centrifuged at 40,000×g for 30 min at 4° C. The resulting P2 pellet was resuspended in assay buffer (50 mM Tris-HCl (pH 7.4), 3 mM MgCl2, 0.2 mM EGTA, and 100 mM NaCl) and protein was determined by the method of Bradford ENRfu(Bradford 1976). Membranes were stored at −80° C. until use. […] The assay was incubated at 30° C. for 1 hr and terminated by addition of ice cold 50 mM Tris-HCl plus BSA (1 mg/ml) (pH 7.4) followed by filtration under vacuum through Whatman GF/B glass fiber filters with 3 washes with cold Tris buffer. Bound radioactivity was determined by liquid scintillation spectrophotometry at 50% efficiency after extraction by shaking samples for 30-60 min with Budget-Solve scintillation fluid. Data are reported as the mean±SEM of three experiments, each performed in triplicate. Ki values were calculated from displacement data using EBDA (Equilibrium Binding Data Analysis; BIOSOFT, Milltown, N.J.). [^35S]GTPγS Binding Assays. Concentration-effect curves were generated by incubating membranes (10 μg prepared from CB1 expressing cells as described above) in assay buffer containing BSA (1 mg/ml) with various concentrations of test compounds in the presence of 20 μM GDP and 0.1 nM [^35S]GTPγS in a 1 ml total volume. […] Basal binding was assessed in the absence of agonist, and nonspecific binding was measured in the presence of 10 μM GTPγS. The reaction was incubated for 90 min at 30° C. and terminated by filtration under vacuum through Whatman GF/B glass fiber filters with 3 washes with cold (4° C.) Tris buffer (50 mM Tris-HCl, pH 7.4). Bound radioactivity was determined by liquid scintillation spectrophotometry at 95% efficiency after extraction overnight in ScintiSafe Econo 1 scintillation fluid. Data are reported as mean±SEM of three experiments, each performed in triplicate. Nonlinear regression analysis was conducted by iterative fitting using JMP (SAS for Macintosh). Net-stimulated [^35S]GTPγS binding is defined as [^35S]GTPγS binding in the presence of drug minus basal and percent stimulation is expressed as (net stimulated [^35S]GTPγS binding/basal)×100%. Behavioral Evaluations. All animals were allowed to acclimate to the observation room overnight. Behavioral effects were assessed in the tetrad model in order to measure potency in producing antinociception, catalepsy, hypothermia, and hypomobility. The baselines for tail-flick latency (2-4 seconds) and rectal temperature were determined prior to i.v. injections. Baseline rectal temperatures were measured using a telethermometer and a thermometer probe inserted to 25 mm (Yellow Springs Instrument Co., Yellow Springs, Ohio). The mice were then given either an i.v. i.c.v. injection of the analog. The mice were placed in individual photocell activity chambers 5 min later. Spontaneous activity was monitored for 10 min in a Digiscan Animal Activity Monitor (Omnitech Electronice, Inc., Columbus, Ohio) as measured by the number of interruptions of 16 photocell beams per chamber.

human CB1 receptor [2] = target: T1, human CB1 receptor; assay: [35S]GTPγS binding assay in membranes of CB1 expressing cells; format: biochemical; conditions: for EC50: mean±SEM; for Emax: read-out: CB1 % CP Stim
Experimental: as §1, §2

mice [3] = assay: Tail-flick antinociception (T.F.), mouse tetrad; format: in vivo; conditions: for ED50: Mus musculus, iv
mice [4] = assay: Rectal temperature (R.T.), mouse tetrad; format: in vivo; conditions: for ED50: Mus musculus, iv
mice [5] = assay: Relative immobility (R.I.), ring-immobility test, mouse tetrad; format: in vivo; conditions: for ED50: Mus musculus, iv
[6] = Experimental: By “water-soluble” we mean that 1 mg of material in 1 ml of water gives a clear solution and is water miscible.
as §1

[7] = maximal GTPγS binding as percentage of stimulation produced by CP 55,940
[8] = mice, i.v., vehicle E:E:S (1:1:18), read-out: T.F. ED50 (antinociception in the tail-flick procedure)
[9] = vehicle E:E:S (1:1:18), read-out: R.T. ED50 (lowering rectal temperature)
[10] = vehicle E:E:S (1:1:18), read-out: R.I. ED50 (relative immobility)
[11] = mice, i.v., vehicle saline, read-out: T.F. ED50 (antinociception in the tail-flick procedure)
[12] = vehicle saline, read-out: R.T. ED50 (lowering rectal temperature)
[13] = vehicle saline, read-out: R.I. ED50 (relative immobility)

T1 sequence (P21554 whole entry): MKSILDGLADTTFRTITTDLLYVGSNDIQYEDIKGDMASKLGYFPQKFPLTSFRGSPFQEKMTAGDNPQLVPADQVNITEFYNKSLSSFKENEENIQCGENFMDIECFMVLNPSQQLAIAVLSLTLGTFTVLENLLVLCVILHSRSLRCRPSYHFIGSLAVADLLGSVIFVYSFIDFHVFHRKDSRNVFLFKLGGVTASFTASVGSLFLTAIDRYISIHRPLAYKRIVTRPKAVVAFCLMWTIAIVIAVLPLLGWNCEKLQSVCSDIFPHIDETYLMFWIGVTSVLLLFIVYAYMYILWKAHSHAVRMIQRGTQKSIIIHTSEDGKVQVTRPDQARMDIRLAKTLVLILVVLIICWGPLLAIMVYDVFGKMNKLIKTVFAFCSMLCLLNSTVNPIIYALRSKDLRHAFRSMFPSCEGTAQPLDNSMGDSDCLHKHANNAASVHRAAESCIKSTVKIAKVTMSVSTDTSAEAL

Compound	Ki (human CB1 receptor [1]; CB1 Ki)	EC50 (human CB1 receptor [2]; CB1 EC50, [35S]GTPγS binding)	Emax (human CB1 receptor [2]; [7]) [%]	ED50 (mice [3]; [8]) [µmol/kg]	ED50 (mice [4]; [9]) [µmol/kg]	ED50 (mice [5]; [10]) [µmol/kg]	Solubility (water-soluble) [6]	Water solubility of the hydrochloride salt [6]	also measured
1-(2-methyl-4-N-piperidinobutyryloxy) [O-2374]									Ki (human CB1 receptor [1]; Tables 2b, 3b, 4a, mean±SEM, read-out: CB1 Ki): 4.62 ± 2.2 nM; EC50 (human CB1 receptor [2]; [35S]GTPγS binding, read-out: CB1 EC50): 16.5 ± 6.97 nM; CB1 % CP Stim (human CB1 receptor [2]; [7]): 80.9 ± 3.73%; T.F. ED50 (antinociception in the tail-flick procedure) (mice [3]; mice, i.v., vehicle saline): 0.41 µmol/kg; R.T. ED50 (lowering rectal temperature) (mice [4]; i.v., vehicle saline): 0.72 µmol/kg; R.I. ED50 (relative immobility) (mice [5]; i.v., vehicle saline): 0.57 µmol/kg; Solubility (water-soluble) ([6]; 1 mg of analog in 1 ml of water, visual observation): Yes
CC1=CC[C@@H]2[C@@H](C1)c1c(O)cc(C(C)(C)CCCCC(N)=O)cc1OC2(C)C [O-2352, Carboxamido]	13.1 ± 0.61 nM	42 ± 4 nM	95 ± 0.3	0.84	1.72	0.93	No	none of the HCl salts was water-soluble	
CC1=CC[C@@H]2[C@@H](C1)c1c(O)cc(C(C)(C)CCCCC(=O)N3CCOCC3)cc1OC2(C)C [O-2372, Morpholino-carboxamido]	1.3 ± 0.12 nM	5.88 ± 0.42 nM	120 ± 1.11	0.01	0.07	0.03	No	none of the HCl salts was water-soluble	
CC1=CC[C@@H]2[C@@H](C1)c1c(O)cc(C(C)(C)CCCCC(=O)N3CCCCC3)cc1OC2(C)C [O-2373, Piperidino-carboxamido]	0.96 ± 0.11 nM	13.5 ± 1.81 nM	119 ± 2.05	0.03	0.03	0.04	No	none of the HCl salts was water-soluble	
CC1=CC[C@@H]2[C@@H](C1)c1c(O)cc(C(C)(C)CCCCC(=O)N3CCN(C)CC3)cc1OC2(C)C [O-2381, Methylepiperazino-carboxamido]	112 ± 14 nM			34	51	183	No		Decrease of CB1 receptor affinity and pharmacological potency, piperidine to piperazine (human CB1 receptor [1]): more than a hundred fold
CC1=CC[C@@H]2[C@@H](C1)c1c(O)cc(C(C)(C)CCCCC(=O)N3CCCC3)cc1OC2(C)C [O-2399, Pyrrolidino-carboxamido]	2.85 ± 0.52 nM	275 ± 87.9 nM	117 ± 4.9	0.1	0.23	0.15	No	none of the HCl salts was water-soluble	
CC1=CC[C@@H]2[C@@H](C1)c1c(O)cc(C(C)(C)CCCCC(=O)N3CCCCCC3)cc1OC2(C)C [O-2421, Homopiperidino-carboxamido]	4.24 ± 1.01 nM	23.2 ± 2.06 nM	81.8 ± 8.96	0.16	0.44	0.86	No		
CC1=CC[C@@H]2[C@@H](C1)c1c(O)cc(C(C)(C)CCCCC(=O)NN3CCCCCC3)cc1OC2(C)C [O-2489, N-(Homo-piperidin-1-yl)-carboxamido]	15.8 ± 0.44 nM	86.6 ± 17.4 nM	112 ± 2.32	2.53	8.5	20.5	No		
CNC(=O)CCCCC(C)(C)c1cc(O)c2c(c1)OC(C)(C)[C@@H]1CC=C(C)C[C@@H]21 [O-2490, N-(Methyl)carboxamido]	18.7 ± 0.58 nM	64.2 ± 10.6 nM	92.7 ± 7.81	1.37	> 2.5	> 2.5	No		
CC1=CC[C@@H]2[C@@H](C1)c1c(O)cc(C(C)(C)CCCCC(=O)NN3CCCC3)cc1OC2(C)C [O-2543, N-(Pyrrolidin-yl)-carboxamido]	23.3 ± 3.4 nM	81.1 ± 40 nM	71.3 ± 4.23	0.75	8.19	25.8	No		
CC1=CC[C@@H]2[C@@H](C1)c1c(O)cc(C(C)(C)CCCCn3ccnc3)cc1OC2(C)C [O-2545, Imidazol-1-yl]	1.34 nM and 1.47 nM	29.3 nM and 4.57 nM		0.07	0.04	0.13			ED50 (mice [3]; figure legends, mice, i.v., saline, read-out: ED50 after i.v. administration, tail-flick response): 0.16 µmol/kg; ED50 (mice [3]; [11]): 0.16 µmol/kg; Analgesia in the tail-flick procedure (mice [3]; oral 10 mg/kg, at two hrs, mean±sem): 85±11%; ED50 (mice [4]; figure legends, i.v., saline, read-out: ED50 after i.v. administration, rectal temperature): 0.29 µmol/kg; ED50 (mice [4]; [12]): 0.29 µmol/kg; ED50 (mice [5]; figure legends, i.v., saline, read-out: ED50 after i.v. administration, relative immobility): 0.14 µmol/kg; ED50 (mice [5]; [13]): 0.14 µmol/kg
CC1=CC[C@@H]2[C@@H](C1)c1c(O)cc(C(C)(C)CCCCc3ncc[nH]3)cc1OC2(C)C [O-2737, 1H-Imidazol-2-yl]	54 nM and 54.9 nM			> 24.5	> 24.5	> 24.5	Yes		ED50 (mice [3]; [11]): > 2.2 µmol/kg; ED50 (mice [4]; [12]): > 2.2 µmol/kg; ED50 (mice [5]; [13]): > 2.2 µmol/kg
